# Columns and labels:
# Cavia porcellus [1] = species: Cavia porcellus; assay: Percent stimulation of [35S]GTP-gamma-S, binding by the compound (10 uM) in guinea pig caudate membranes for unblocked condition; type: functional
# Cavia porcellus [2] = species: Cavia porcellus; assay: Percent stimulation of [35S]GTP-gamma-S, binding by the compound in guinea pig caudate membranes for unblocked condition; type: functional, organism-based
Compound,Stimulation (Cavia porcellus [1]),Stimulation (Cavia porcellus [2])
CCN(CC)C(=O)c1ccc(N(c2cccc(OC)c2)[C@H]2C[C@H]3CC[C@@H](C2)N3CC=C(C)C)cc1,29%,–
C=CCN1[C@@H]2CC[C@H]1C[C@@H](N(c1ccc(C(=O)N(CC)CC)cc1)c1cccc(O)c1)C2,79%,–
C=CCN1[C@@H]2CC[C@H]1C[C@@H](N(c1ccc(C(=O)N(CC)CC)cc1)c1cccc(OC)c1)C2,46%,–
C=CCN1C[C@H](C)N([C@H](c2ccc(C(=O)N(CC)CC)cc2)c2cccc(OC)c2)C[C@H]1C,–,102%
C/C=C\CN1C2CCC1CC(N(c1ccc(C(=O)N(CC)CC)cc1)c1cccc(OC)c1)C2 (stereo not given),37%,–

# From ChEMBL document CHEMBL1132914, “4-[(8-Alkyl-8-azabicyclo[3.2.1]octyl-3-yl)-3-arylanilino]-N,N-diethylbenzamides: high affinity, selective ligands for the delta opioid receptor illustrate factors important to antagonist activity” (Bioorg Med Chem Lett, 2000)
